Assay results taken from patent US20220378773A1, “METHODS FOR TREATING LEUKEMIA AND USE OF A LEUKEMIC STEM CELL SIGNATURE TO PREDICT CLINICAL SENSITIVITY TO THERAPIES” (CELGENE CORPORATION, priority 2019, published 2022).

Tested on: AML graft (human CD45+CD33+ cells)
Experiment: AML xenograft efficacy, 2.5 mg/kg IP twice daily
Format: in vivo, NOD/SCID mice
Conditions: for In vivo Efficacy (% reduction) BM / In vivo Efficacy (% reduction) RF: AML cells vs vehicle; for Response: class by % reduction of AML cells in RF or BM
Description: Preparation of Test Article for Dosing: For in vivo Compound D dosing, Compound D was formulated immediately prior to each dose following the protocol below.
Formulation: 5% NMP/45% polyethylene glycol (PEG) 400/50% Saline; NMP—Catalogue no. 69118 (new no. M79603-1L), Fluka; PEG400—Catalogue no. 81172-1L, Fluka; Saline—0.9% sodium chloride.
Preparation: Weigh the desired amount of compound in glass vial. Add NMP and vortex. Make sure that entire compound is wet. Add PEG400 and vortex until clear solution without particulates. Add saline slowly and mix thoroughly for about a minute with hand held homogenizer with disposable tip.
Compound Administration: Compound D is dosed via the intraperitoneal route. Vehicle and Compound D are dosed in a volume of 2.5 mL/kg for twice daily (BID) dosing (if testing once daily [QD] dosing, use a dose volume of 5 mL/kg). Recommend a twice daily protocol with a 3-hour separation between the doses.
Intrafemoral Transplantation: One day prior to transplantation, NOD/SCID mice were preconditioned by sublethally irradiating (275 cGy) followed by injection with anti-CD122 antibody (200 μg/mouse) to deplete residual host natural killer (NK) cells. On the day of transplantation, viably frozen AML bulk cells (see Section 6.2.1.2) were thawed, counted, and transplanted intrafemorally into the preconditioned mice at a dose of 5×10^6 cells/mouse in a total volume of 30 μL phosphate buffered saline.
Treatment and Assay Procedure: At Day 21 post AML transplantation, mice were randomly grouped and dosed with either Compound D at 2.5 mg/kg or vehicle (5% N-methyl-2-pyrrolidone [NMP]/45% polyethylene glycol [PEG] 400/50% saline), intraperitoneally twice daily in a dose volume of 50 μL for 4 weeks. All animals were euthanized at scheduled termination (1 day after the last treatment) and bone marrow was collected from the right femur (injected bone marrow) and the left femur and left and right tibia (non-injected bone marrow). Cells isolated from injected or non-injected bone marrow were analyzed by flow cytometry to assess AML engraftment, and were viably frozen for future secondary engraftment analysis.
Cells harvested from injected and non-injected bone marrow were stained with mouse anti human antibodies as indicated in Section 6.2.1.3. After staining, washed cells were run on an LSRII flow cytometer (BD, USA) with 10,000 to 20,000 events collected for each sample. Collected data were analyzed by FlowJo software (TreeStar, USA) to assess AML engraftment levels in different tissues as determined by the percentage of human CD45+CD33+ cells.
Immune-deficient NOD/SCID mice were sublethally irradiated (225cGy) and treated with anti-CD122 antibody to eradicate residual mouse NK cells the day before AML implantation. Primary AML cells from each patient were intrafemorally injected into the mouse right femur at the cell dose 5×10^6 per mouse, with 10 mice transplanted per sample. Compound D and vehicle treatment was initiated at day 21 post transplantation. Compound D was administered at 2.5 mg/kg, intraperitoneally (IP) twice a day at 3 hours apart for 4 weeks. Before each treatment, Compound D was freshly dissolved into the solution. Vehicle was the same solution without Compound D compound and given to the control-treated mice at same volume (50 μL/mouse) with the same therapeutic schedule as Compound D treatment. For each patient sample, each treated group had 5 mice.
After treatment finished, cells were harvested from both injected right femur (RF) and non-injected bone marrow (BM, including left femur, 2 tibias), and stained with human antibodies to assess the engraftment levels of AML. Antibodies used for staining included: Mouse anti-human CD45-APC, CD15-FITC, CD34-APC7, CD38-PC7 (BD Biosciences, USA), CD14-PE, CD33-PC5 (Beckman Coulter, USA), CD19-V450, CD19-AF700, CD11b-APC7, CD34-BV421 (BD Biosciences, USA), and propidium iodide (PI; Invitrogen, USA).

[1] = three samples with high LSC17 score

## O=C1CCC(N2Cc3cc(CNC(=O)C(F)(F)c4ccc(Cl)cc4)ccc3C2=O)C(=O)N1 (centres unmarked) [Compound D, 2-(4-chlorophenyl)-N-((2-(2,6-dioxopiperidin-3-yl)-1-oxoisoindolin-5-yl)methyl)-2,2-difluoroacetamide]
7 of the low LSC17 samples, more than 50% reduction
  response of samples with low LSC17 scores: responded very well
AML 100348 (low LSC17)
  human CD45+ leukemia graft in RF and BM: significant response
AML Patient 90668, 5 million cells per mouse
  paralyzation or death: did not rescue these mice from paralyzation or death
BM
  number of high LSC17 samples with more than 80% leukemia reduction, BM: 17
  number of samples with 50 to 75% reduction (group 2), BM: 6
  number of samples with >80% reduction (group 1), BM: 14
Patient 598
  In vivo Efficacy (% reduction) BM: 95%
  In vivo Efficacy (% reduction) RF: 46%
  Response: R (R = >60%)
Patient 90191
  In vivo Efficacy (% reduction) BM: −250%
  In vivo Efficacy (% reduction) RF: −21%
  Response: NR (NR = <30%)
Patient 100348
  In vivo Efficacy (% reduction) BM: 90%
  In vivo Efficacy (% reduction) RF: 86%
  Response: R (R = >60%)
Patient 110484
  In vivo Efficacy (% reduction) BM: 96%
  In vivo Efficacy (% reduction) RF: 73%
  Response: R (R = >60%)
Patient 110500
  In vivo Efficacy (% reduction) BM: 67%
  In vivo Efficacy (% reduction) RF: 72%
  Response: R (R = >60%)
Patient 110625
  In Vivo Efficacy (Primary Mice) % AML cell reduction relative to Veh, BM: 99.9%
  In Vivo Efficacy (Primary Mice) % AML cell reduction relative to Veh, RE: 99.9%
Patient 120791
  In vivo Efficacy (% reduction) BM: 98%
  In vivo Efficacy (% reduction) RF: 69%
  Response: R (R = >60%)
Patient 120846
  In vivo Efficacy (% reduction) BM: 26%
  In vivo Efficacy (% reduction) RF: 9%
  Response: NR (NR = <30%)
Patient 120858
  In vivo Efficacy (% reduction) BM: 2%
  In vivo Efficacy (% reduction) RF: 0%
  Response: NR (NR = <30%)
Patient 120860
  percent and number of CD34+ primitive cells: not reduced
  In vivo Efficacy (% reduction) BM: 20%
  In vivo Efficacy (% reduction) RF: 1%
  Response: NR (NR = <30%)
Patient 120860 (low LSC17)
  numbers of AML cells, injected femur: did not reduce the numbers of AML cells
Patient 120860 (low LSC17), vs vehicle
  number of AML cells, non-injected BM: significantly reduced
Patient 120899
  In vivo Efficacy (% reduction) BM: 67%
  In vivo Efficacy (% reduction) RF: 13%
  Response: R (R = >60%)
Patient 121020
  In vivo Efficacy (% reduction) BM: 52%
  In vivo Efficacy (% reduction) RF: 42%
  Response: PR (PR = 30%-60%)
Patient 130311
  In Vivo Efficacy (Primary Mice) % AML cell reduction relative to Veh, BM: 99.6%
  In Vivo Efficacy (Primary Mice) % AML cell reduction relative to Veh, RE: 99.8%
Patient 130578
  In vivo Efficacy (% reduction) BM: 73%
  In vivo Efficacy (% reduction) RF: 61%
  Response: R (R = >60%)
Patient 130695
  In vivo Efficacy (% reduction) BM: 86%
  In vivo Efficacy (% reduction) RF: 52%
  Response: R (R = >60%)
Patient 130712
  In vivo Efficacy (% reduction) BM: 56%
  In vivo Efficacy (% reduction) RF: 17%
  Response: PR (PR = 30%-60%)
Patient 130826
  In Vivo Efficacy (Primary Mice) % AML cell reduction relative to Veh, BM: 98.1%
  In Vivo Efficacy (Primary Mice) % AML cell reduction relative to Veh, RE: 95.0%
Patient 130926
  In vivo Efficacy (% reduction) BM: 85%
  In vivo Efficacy (% reduction) RF: 70%
  Response: R (R = >60%)
Patient 140171
  In vivo Efficacy (% reduction) BM: 28%
  In vivo Efficacy (% reduction) RF: 4%
  Response: NR (NR = <30%)
Patient 150238
  In Vivo Efficacy (Primary Mice) % AML cell reduction relative to Veh, BM: 98.7%
  In Vivo Efficacy (Primary Mice) % AML cell reduction relative to Veh, RE: 95.2%
RF
  number of high LSC17 samples with more than 80% leukemia reduction, RF: 13
  number of samples with 50 to 75% reduction (group 2), RF: 10
  number of samples with >80% reduction (group 1), RF: Seventeen
  number of samples with less than 25% reduction (group 3), RF: 9
RF and BM
  response, secondary and relapsed vs de novo AML: responses similar to the cells from de novo AML patients
RF and BM, all samples
  samples considered responders or partial-responders: 29 out of 35 samples
Section 6.2.6, 4 weeks
  AML samples with significant effect: significant effects on 4 out of 5 AML samples
Section 6.3, 31 patient samples tested
  engrafted samples with significant and dramatic responses: 24 out of 28
Among 7 AML samples incl. 2 pilot samples
  responder samples: 5 samples were responders
Group 3
  samples that did not respond at all, injected RF: 4 out of 9
  samples with no AML reduction, BM: 3 out of 6
mouse, in vivo
  response, Flt3-ITD vs wild-type Flt3 in cytogenetically normal AML: slightly less response to Compound D in injected RF but similar response in BM
  response, abnormal vs normal karyotypes: better response
[1]
  AML cells in RF and BM: completely eradicated to undetectable levels
  absolute numbers of primitive CD34+ cells: very low and undetectable levels
